Laboratory results: patent US20110313164A1, “LITHIUM DERIVATIVES OF PYRROLOQUINOLINE QUINONE AND PREPARATION METHOD THEREOF” (priority 2009, published 2011)

Tested on: APP/PSI transgenic mice
Experiment: cognitive ability of APP/PSI transgenic mice (FIG. 1)
Assay type: in vivo
Details: intragastric administration, 20-week-old mice, 1.5 and 6 mg/kg of weight
Procedure: Intragastric administration is applied to 20-week-old mice. Wiletype is a wiletype control group; Ctrl is a transgenic control group; DNP is a […] group (1.5 mg/kg of weight); PQQLi 1.5 is a lithium pyrroloquinoline-quinone salt group (1.5 mg/kg of weight); PQQLi 6 is a lithium pyrroloquinoline-quinone group (6 mg/kg of weight). *p<0.05; ** p<0.005; NS: […].

For `O=C(O)c1cc(C(=O)O)c2c(n1)C(=O)C(=O)c1cc(C(=O)[O-])[nH]c1-2.[Li+]` [PQQLi, 4,5-dihydroxy-1H-pyrrole[2,3-f]chinoline-2,7,9-tricarboxylic acid, lithium salt], the cognitive ability was “promotes the cognitive ability”.
